Source: patent publication US20190125753A1, “COMPOUNDS AND METHODS FOR INCREASING HEMATOPOIESIS” (University of Southern California, priority 2016, published 2019)
pIC50: −log10 of the molar value.

Assays:
[1] = tested on: mouse bone marrow cells; experiment: Colony-forming cell (CFC) assay after 4 h in vitro treatment; assay type: cell-based
Experimental: Brief (less than 24 hours) treatment of HSC with YH250 or DMSO was conducted before the CFC or CFU-S12 assay. Mouse bone marrow cells were treated with DMSO (solvent control) or YH250 for 4 hours in serum free HSC expansion medium before the cells were recovered for a colony forming assay. 7-8 Days after cell plating in methylcellulose medium (Stemcell Technologies, Methocult GF M3434, Cat#3434), colonies were scored, and the cells from each plate were recovered and counted.
In fact, they also show similar biological functions with respect to HSPC.

[2] = tested on: Human survivin promoter; experiment: Survivin/luciferase reporter (Survivin-Hek-293); assay type: cell-based
Experimental: (§1) Hek293 cells were stably transfected with plasmid that contains multiple TCF/LEF fragments in front of Luciferase gene. Wnt/β-catenin activity was determined from luciferase expression levels. […] Briefly, stably transfected Hek-293, STFI.1 (Wnt/β-catenin-driven luciferase) and Survivin-Hek-293 (1 Kb Human survivin promoter-driven luciferase) cells were maintained in DMEM, 10% FBS, Pen/Strep with 400 μg/mL G418 or 2 μg/mL puromycin, respectively. To check the activity of ICG-001, YH249, and YH250, the cells were split into white-opaque 96-well plates at 10,000 cells per well and allowed to attach overnight. For SuperTOPLASH, the inhibitors were added to the cells and pre-incubated for 1 hour prior to stimulation with 10 mM Li Cl for 24 hours. Luciferase activity was read using BrightGlo (Promnega) luciferase substrate. For survivin/luc, the inhibitors were added to the cells and incubated for 24 hours prior to readout. To calculate IC5o values, the resulting curve was fitted to a four-parameter logistic model (4PL) using GraphPad Prism 5 software.
B. Survivin Expression Level: The Secondary Screen.
(§2) An endogenous human survivin 1 kb promoter was inserted before a luciferase gene. […] R1 and R2 were diversified in this study. Percent inhibition of luciferase activity was calculated according to the following equations; % inhibition of STF 1.1 reporter activity=(I−RLU(10 mM LiCl) treated/RLU(10 omM LiCl) vehicle×control)100, % inhibition of Survivin reporter activity=(1−RLUtreated/RLU vehicle control)×100. Error bars indicate the mean±SE of 3 separate experiments. Selectivity (FIG. 2H) was calculated by IC50 value for Survivin-Hek-293/IC50 value for STF 1.1.

[3] = tested on: bone marrow cells; experiment: Brief (4 h) incubation of bone marrow cells, 14 days culture, FACS; assay type: cell-based, mouse; conditions: 0.5 μM 4 hrs, 14 days culture
Experimental: Bone marrow cells were treated with DMSO or YH250 (0.5 μM) for 4 hours, then the compound was removed and the cells cultured in QBSF-58 medium for 14 days with 10 ng/ml of SCF, TPO, Flt3 ligand, and IL-6. At the end of culture, cells were recovered and analyzed for LSK cells with FACS.
In a further study, female CD45.1 mice bone marrow cells were incubated with DMSO, or YH249 (0.5 μM) or YH250 (0.5 μM) for 4 hrs in QBSF-58 media, then 2×10^4 cells were plated in QBSF-58 medium containing SCF, TPO, Flt3 and IL-6 (10 ng/ml for each) for 14 days. Cells were then recovered from plate for FACS analysis. […] Correspondingly, there are higher LSK cells (52%, 60% and 70% respectively for DMSO, YH249 and YH250). From every 10,000 analyzed cells, LSKCD34negt cell numbers are 437, 663 and 2051 for DMSO, YH249 and YH250 treated cells, respectively.

[4] = tested on: H9 human embryonic stem cells; experiment: Maintenance of human ES cell pluripotency, 5 days; assay type: cell-based; conditions: 25 ng/ml Wnt3a; 500 nM YH249 or 200 nM YH250, 5 days, without FGF and TGF
Experimental: (§3) We also determined that IQ-1 indirectly, via binding to the PR72/130 subunit of PP2A, inhibited the p300/β-catenin interaction (Id). Therefore, we anticipated that YH249/250 should also maintain mESC pluripotency in a Wnt dependent manner. To test his, R1 mESCs were cultured under feeder free conditions in the presence or absence of YH249/250 for 5 days. […] Pluripotency markers, Oct4, Nanog, Sox2, SSEA-1 and ALP, were all expressed in the cells treated with Wnt3a and YH250 (FIG. 28b). Moreover, Wnt3a could be replaced with the selective GSK-3 inhibitor CHIR99021, which activates the Wnt signaling pathway (FIG. 28a, lower panel). […] In the event, similarly to ID-8, the combination of Wnt3a and YH249/250 provided morphologically undifferentiated colonies of H9 human embryonic stem cells (hESCs) without FGF and TGF (FIG. 28c). hPSC markers were detected by ALP staining and immunofluorescence (FIG. 28d). In addition to H9 cells, two other hESC lines and a human induced pluripotent stem (iPS) cell line could be also maintained undifferentiated morphology utilizing the same conditions (not shown).
Specifically, FIG. 28A-28D, show maintenance of ESC's pluripotency by YH249 and YH250. […] 28A, Typical colony morphologies of RI mouse ES cells cultured 5 days in [upper panel] […]

[5] = target: T1, p300 (Mus musculus, UniProt B2RWS6); experiment: Bio-249 affinity pull-down from C2Cl2 lysates, p300 immunoblot; assay type: binding
T1 construct: endogenous in cells; host or cells: lysates of mouse C2C12 myoblasts
Experimental: YH249 and YH250 were selected from the compounds described herein for further testing. Co-immunoprecipitation (CO-IP) was performed with mouse myoblast C2Cl2 cells. Cells were treated with DMSO (control), or YH249, or YH250 for 24 hours. Cell lyses were pulled down with anti-p300 or anti-CBP antibodies, run on gel and probed with anti-β-catenin antibody. […] A biotinylated version of YH249 (Bio-249) was prepared via the propargyl amide variant. Using a biotin with a linker and a terminal azide residue, we were able to couple the biotin to the YH249 core via a 3+2 cyclization reaction to provide Bio-249. Bio-249 was incubated with lysates from C2Cl2 myoblasts, either in the presence or absence of competitor YH249 for 4 h at 4° C. and then bound to streptavidin agarose beads. After extensive washing the bound proteins were eluted and run out on an […].

[6] = tested on: Wnt/β-catenin pathway; experiment: SuperTOPFLASH (STF1.1 Hek-293) Wnt/β-catenin-driven luciferase reporter; assay type: cell-based
Experimental: A. Wnt/β-Catenin Activity: The Initial SuperTOPFLASH Screen.
as §1, §2

[7] = tested on: R1 mESCs; experiment: Maintenance of mouse ES cell pluripotency, feeder free, 5 days; assay type: cell-based; conditions: with 50 ng/ml Wnt3a or 3 μM CHIR99021; 500 nM YH249 or 200 nM YH250, 5 days
Experimental: as §3
Specifically, FIG. 28A-28D, show maintenance of ESC's pluripotency by YH249 and YH250. […] 28A, Typical colony morphologies of RI mouse ES cells cultured 5 days in [upper panel] 3 μM CHIR99021 and 1 μM PD0325901 (2i) medium, basal medium (2i medium without CHIR99021 and PD0325901), basal medium supplemented with 50 ng/ml Wnt3a alone, [middle panel] combination of 50 ng/ml Wnt3a and 2 μM IQ-1, 500 nM YH249 or 200 nM YH250, [lower panel] 3 μM of CHIR99021 alone, and combination of 3 μM CHIR99021 and 500 nM YH249 or 200 nM YH250. […] The blue signal (Wnt3a panels) represents DAPI nuclear staining. Bars indicate […]. […] The blue signal (Wnt3a panels) represents DAP1 nuclear staining. Scale bars indicate 100 am.

[8] = target: T2, CBP/γ-catenin interaction (Mus musculus, UniProt P45481); experiment: Co-IP of bone marrow Sca-1posit cells from treated mice (anti-CBP); assay type: in vivo; conditions: YH250 2 mg/kg subcutaneously, 24 hrs
T2 construct: bone marrow Sca-1posit cells were isolated with Anti-Sca-1 microbeads; from tissue; host or cells: bone marrow Sca-1 positive cells of female C57/Black mice dosed in vivo
Experimental: (§4) YH250 was used in this study. Female C57/Black mice were administrated with either DMSO (solvent control) or YH250 (2 mg/kg) subcutaneously. 24 hrs later, bone marrow Sca-1posit cells were isolated with Anti-Sca-1 microbeads (Miltenyi Biotec, Cat#130-092-529) for co-immunoprecipitation (FIG. 4A). Cells were then lysed and incubated with either anti-CBP (A22) or anti-p300 (C20) antibodies. Then, the immunoprecipitation complex were electrophoresed and detected with antibodies to either β-catenin or γ-catenin. […] This confirms that YH250 directly disrupts the p300/catenin interaction thereby enhancing the CBP/catenin interaction in HSPCs.

[9] = target: T3, p300/γ-catenin interaction (Mus musculus, UniProt B2RWS6); experiment: Co-IP of bone marrow Sca-1posit cells from treated mice (anti-p300); assay type: in vivo; conditions: YH250 2 mg/kg subcutaneously, 24 hrs
T3 construct: bone marrow Sca-1posit cells were isolated with Anti-Sca-1 microbeads; from tissue; host or cells: bone marrow Sca-1 positive cells of female C57/Black mice dosed in vivo
Experimental: as §4

[10] = tested on: R1 mESCs; conditions: Wnt dependent manner; cited from earlier work
[11] = 4 hours incubation then CFC assay

T1 sequence (B2RWS6 whole entry): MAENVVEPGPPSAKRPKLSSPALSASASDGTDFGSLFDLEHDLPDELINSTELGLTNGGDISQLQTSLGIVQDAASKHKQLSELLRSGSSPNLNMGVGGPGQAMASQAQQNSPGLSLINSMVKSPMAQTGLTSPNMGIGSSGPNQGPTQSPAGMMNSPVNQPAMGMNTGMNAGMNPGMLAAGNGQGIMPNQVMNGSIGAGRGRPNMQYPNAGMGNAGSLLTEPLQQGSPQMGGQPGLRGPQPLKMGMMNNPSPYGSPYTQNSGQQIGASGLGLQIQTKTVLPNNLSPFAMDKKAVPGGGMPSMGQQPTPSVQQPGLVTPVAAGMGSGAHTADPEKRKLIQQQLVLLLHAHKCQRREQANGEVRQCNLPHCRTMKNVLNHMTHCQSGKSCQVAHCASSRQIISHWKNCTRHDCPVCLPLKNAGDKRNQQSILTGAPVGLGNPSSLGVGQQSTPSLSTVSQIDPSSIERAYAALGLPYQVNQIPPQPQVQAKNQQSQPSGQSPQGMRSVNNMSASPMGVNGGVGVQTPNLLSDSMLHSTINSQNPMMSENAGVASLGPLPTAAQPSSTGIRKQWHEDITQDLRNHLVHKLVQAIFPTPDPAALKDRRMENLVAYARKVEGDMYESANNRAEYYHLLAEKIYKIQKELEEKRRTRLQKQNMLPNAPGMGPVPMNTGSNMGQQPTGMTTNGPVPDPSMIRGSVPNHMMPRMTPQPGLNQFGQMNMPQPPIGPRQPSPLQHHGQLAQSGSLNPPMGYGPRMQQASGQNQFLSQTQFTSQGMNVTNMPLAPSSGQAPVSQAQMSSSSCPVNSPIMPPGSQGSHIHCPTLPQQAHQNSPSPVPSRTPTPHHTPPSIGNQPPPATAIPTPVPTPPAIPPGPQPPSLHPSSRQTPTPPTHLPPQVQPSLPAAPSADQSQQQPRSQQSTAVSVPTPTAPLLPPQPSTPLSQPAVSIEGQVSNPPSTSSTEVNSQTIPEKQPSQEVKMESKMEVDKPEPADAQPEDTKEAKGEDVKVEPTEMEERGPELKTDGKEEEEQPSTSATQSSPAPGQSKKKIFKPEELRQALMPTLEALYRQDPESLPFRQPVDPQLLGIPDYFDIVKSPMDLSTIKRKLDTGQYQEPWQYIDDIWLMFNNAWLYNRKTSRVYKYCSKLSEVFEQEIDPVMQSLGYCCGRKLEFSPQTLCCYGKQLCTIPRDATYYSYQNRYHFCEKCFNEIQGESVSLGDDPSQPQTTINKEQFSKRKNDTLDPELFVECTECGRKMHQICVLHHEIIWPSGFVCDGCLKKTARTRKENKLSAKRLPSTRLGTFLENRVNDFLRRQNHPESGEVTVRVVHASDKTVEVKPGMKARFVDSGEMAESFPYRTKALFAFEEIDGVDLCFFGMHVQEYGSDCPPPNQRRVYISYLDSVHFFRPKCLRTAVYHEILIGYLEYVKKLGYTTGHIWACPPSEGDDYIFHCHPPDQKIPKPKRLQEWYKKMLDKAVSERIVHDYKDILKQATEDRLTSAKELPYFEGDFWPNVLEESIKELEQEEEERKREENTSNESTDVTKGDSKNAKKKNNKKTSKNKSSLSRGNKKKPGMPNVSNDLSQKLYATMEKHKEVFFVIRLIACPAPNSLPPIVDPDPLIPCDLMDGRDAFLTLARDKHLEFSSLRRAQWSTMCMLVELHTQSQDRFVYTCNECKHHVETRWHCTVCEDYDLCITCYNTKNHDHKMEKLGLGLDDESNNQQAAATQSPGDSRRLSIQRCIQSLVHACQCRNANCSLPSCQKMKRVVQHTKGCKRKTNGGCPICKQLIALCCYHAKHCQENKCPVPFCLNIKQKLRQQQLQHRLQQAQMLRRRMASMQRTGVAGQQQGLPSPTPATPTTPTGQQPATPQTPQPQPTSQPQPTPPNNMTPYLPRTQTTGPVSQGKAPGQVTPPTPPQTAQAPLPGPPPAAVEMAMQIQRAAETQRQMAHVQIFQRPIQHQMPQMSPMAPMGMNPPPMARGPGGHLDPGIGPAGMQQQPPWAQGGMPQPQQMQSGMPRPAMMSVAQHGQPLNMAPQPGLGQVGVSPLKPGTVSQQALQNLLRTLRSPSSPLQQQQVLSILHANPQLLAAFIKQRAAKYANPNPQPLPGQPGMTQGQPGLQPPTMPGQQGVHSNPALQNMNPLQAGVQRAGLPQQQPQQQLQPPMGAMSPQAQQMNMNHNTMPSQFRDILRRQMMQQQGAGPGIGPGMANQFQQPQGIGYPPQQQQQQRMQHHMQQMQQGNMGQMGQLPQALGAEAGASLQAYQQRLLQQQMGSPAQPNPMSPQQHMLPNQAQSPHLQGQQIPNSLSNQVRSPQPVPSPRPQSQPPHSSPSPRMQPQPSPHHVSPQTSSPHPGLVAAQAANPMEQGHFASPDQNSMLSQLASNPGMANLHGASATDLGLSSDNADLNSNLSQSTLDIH
T3 sequence (B2RWS6 2-2412 limits assumed): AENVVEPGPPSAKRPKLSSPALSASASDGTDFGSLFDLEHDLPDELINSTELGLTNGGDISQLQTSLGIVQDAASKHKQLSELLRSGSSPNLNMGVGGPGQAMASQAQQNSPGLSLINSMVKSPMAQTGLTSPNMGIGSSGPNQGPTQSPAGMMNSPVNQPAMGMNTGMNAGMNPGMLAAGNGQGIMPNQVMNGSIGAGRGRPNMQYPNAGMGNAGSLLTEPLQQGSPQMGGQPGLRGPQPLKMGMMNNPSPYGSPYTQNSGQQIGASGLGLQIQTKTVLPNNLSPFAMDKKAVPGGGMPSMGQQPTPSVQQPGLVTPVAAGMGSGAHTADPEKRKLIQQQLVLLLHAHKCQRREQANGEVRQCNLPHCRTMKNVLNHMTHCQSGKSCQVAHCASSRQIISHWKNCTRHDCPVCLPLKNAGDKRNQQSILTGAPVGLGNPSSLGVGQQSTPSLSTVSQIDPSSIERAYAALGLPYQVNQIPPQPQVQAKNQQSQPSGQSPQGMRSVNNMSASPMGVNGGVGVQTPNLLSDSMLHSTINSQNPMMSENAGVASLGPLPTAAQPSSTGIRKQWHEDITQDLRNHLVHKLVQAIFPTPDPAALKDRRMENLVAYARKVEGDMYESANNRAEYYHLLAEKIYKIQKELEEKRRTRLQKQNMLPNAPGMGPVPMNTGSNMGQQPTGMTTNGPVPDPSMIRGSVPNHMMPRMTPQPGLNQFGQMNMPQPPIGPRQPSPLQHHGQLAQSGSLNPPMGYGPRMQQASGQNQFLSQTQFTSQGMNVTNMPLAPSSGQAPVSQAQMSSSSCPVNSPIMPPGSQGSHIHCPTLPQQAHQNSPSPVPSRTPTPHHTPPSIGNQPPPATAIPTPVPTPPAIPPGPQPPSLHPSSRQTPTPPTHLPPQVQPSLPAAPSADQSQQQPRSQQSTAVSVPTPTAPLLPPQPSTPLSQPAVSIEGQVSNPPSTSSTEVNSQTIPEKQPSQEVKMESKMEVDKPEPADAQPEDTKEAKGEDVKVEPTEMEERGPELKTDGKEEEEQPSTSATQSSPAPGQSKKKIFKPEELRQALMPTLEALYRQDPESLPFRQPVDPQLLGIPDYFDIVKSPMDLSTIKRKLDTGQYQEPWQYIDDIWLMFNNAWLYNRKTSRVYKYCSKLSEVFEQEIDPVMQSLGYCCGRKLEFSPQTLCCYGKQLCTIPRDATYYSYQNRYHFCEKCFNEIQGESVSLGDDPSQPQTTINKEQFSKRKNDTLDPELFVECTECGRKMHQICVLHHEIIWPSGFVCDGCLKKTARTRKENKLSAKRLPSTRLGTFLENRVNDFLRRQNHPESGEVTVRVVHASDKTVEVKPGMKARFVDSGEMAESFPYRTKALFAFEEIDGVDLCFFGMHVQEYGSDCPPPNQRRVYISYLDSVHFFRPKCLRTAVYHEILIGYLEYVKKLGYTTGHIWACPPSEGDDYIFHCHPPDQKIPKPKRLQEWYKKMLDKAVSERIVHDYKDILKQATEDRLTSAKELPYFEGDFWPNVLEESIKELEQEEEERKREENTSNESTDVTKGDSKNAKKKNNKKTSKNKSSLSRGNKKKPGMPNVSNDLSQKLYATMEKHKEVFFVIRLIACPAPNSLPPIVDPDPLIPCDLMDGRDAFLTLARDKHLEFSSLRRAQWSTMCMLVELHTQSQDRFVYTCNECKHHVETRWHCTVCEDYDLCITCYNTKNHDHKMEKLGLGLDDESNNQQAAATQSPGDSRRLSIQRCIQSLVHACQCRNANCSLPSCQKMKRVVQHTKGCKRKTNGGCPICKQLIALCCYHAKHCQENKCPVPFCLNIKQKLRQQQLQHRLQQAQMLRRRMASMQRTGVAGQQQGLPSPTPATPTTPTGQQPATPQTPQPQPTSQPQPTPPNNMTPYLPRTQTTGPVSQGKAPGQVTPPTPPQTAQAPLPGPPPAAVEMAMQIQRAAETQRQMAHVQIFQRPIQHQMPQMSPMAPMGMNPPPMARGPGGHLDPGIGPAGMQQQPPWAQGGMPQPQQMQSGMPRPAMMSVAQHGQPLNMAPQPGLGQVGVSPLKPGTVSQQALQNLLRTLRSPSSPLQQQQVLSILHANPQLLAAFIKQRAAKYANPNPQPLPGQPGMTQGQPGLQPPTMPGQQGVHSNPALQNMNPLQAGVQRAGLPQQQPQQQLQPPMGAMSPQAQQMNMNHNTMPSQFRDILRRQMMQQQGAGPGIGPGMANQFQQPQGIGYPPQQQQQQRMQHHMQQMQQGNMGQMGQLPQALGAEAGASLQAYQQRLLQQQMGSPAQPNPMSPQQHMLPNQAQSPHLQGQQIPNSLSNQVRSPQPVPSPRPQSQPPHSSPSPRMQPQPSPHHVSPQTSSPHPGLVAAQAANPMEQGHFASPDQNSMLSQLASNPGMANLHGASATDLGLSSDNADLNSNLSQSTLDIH

COc1cccc(CNC(=O)N2C3CN(Cc4cccc(Cl)c4N(C)C)C(=O)[C@H](Cc4ccc(O)cc4)N3C(=O)CN2C)c1OC (some centres unmarked) [YH249]
CELL#/plate [1, 11]: 5.2 × 10^5
CFC#/plate [1, 11]: 27
cell number in each plate vs DMSO ([1]; 4 hours treatment, cells recovered from plate): higher cell number in each plate
pIC50 ([2]; Homo sapiens, Survivin-Hek-293, 24 hours, read-out: survivin/luciferase reporter: did not inhibit up to): < 4.70
lineage negative cell ([3]; DMSO 9%): 17%
LSK cells ([3]; DMSO 52%): 60%
LSKCD34negt cell numbers ([3]; from every 10,000 analyzed cells, DMSO 437): 663
hESC pluripotency [4]: maintain pluripotency
binding to p300 (affinity precipitation, p300 immunoblot) ([5]; C2Cl2 lysates, 4 h at 4° C., streptavidin agarose beads): directly binding to p300
competition of the band precipitated by Bio-249 ([5]; free competitor): strongly competed out
pIC50 ([6]; Homo sapiens, HEK293, STF1.1 Hek-293, 1 hour pre-incubation, 10 mM LiCl 24 hours): > 7.00
mESC pluripotency [7]: maintain pluripotency

O=C1[C@H](Cc2ccc(O)cc2)N2C(=O)CCN(C(=O)NCc3ccccc3)[C@H]2CN1Cc1cccc2ccccc12 [ICG-001, reference compound]
CBP/γ-catenin interaction [8]: inhibits CBP/γ-catenin interaction
p300/γ-catenin interaction [9]: promotes p300/γ-catenin interaction
survivin expression level in survivin-reporter system [2]: significantly decreased in a dose dependent manner
luciferase activity (Wnt/β-catenin activity) ([6]; Hek293 TCF/LEF luciferase): luciferase activity was decreased

CC(=O)c1ccc(NN=C(C(N)=O)C2=NC(C)(C)Cc3ccccc32)cc1 [IQ-1]
mESC pluripotency (previously reported) [10]: maintain long term mESC pluripotency
